Assays:
[1] = test system: human bronchiols; assay: Test Procedure A: remaining contraction of human bronchus preparation on LTD4 challenge after 1 h pre-treatment with test item; format: cell-based; settings: 10 nM Leukotriene D4; for % RC 1 μM: test item 1 μM pre-treatment; for % RC 10 μm: test item 10 μm, 1 h pre-treatment
Method: (§1) The usefulness of the compounds, as defined in the embodiments herein, in treating, revoking, mitigating, alleviating and/or preventing a condition of the respiratory apparatus characterized by bronchoconstriction, were evaluated in a complex and relevant in vitro model, which is described in US 2006-0040254 A1 and Skogvall, S., Berglund, M., Dalence-Guzmán, M. F., Svensson, K., Jönsson, P., Persson, C. G. A and Sterner, O., Pulmonary Pharmacology and Therapeutics, vol 20:3, 2007, p. 273-280. All references disclosed herein are hereby incorporated in their entirety by reference.
(§2) Lung tissue was obtained from patients undergoing lobectomia or pulmectomia due to lung carcinoma. The tissue was placed in a dissection chamber continuously perfused with 10 ml min^−1 of a physiological saline solution (PSS) at room temperature. An airway was identified in the cut part of the lobe, and a bronchus of 10-20 mm length, and 1-2 mm diameter was obtained. The bronchus was cut into rings of a width of about 2-3 mm. Each bronchial ring was cleaved to obtain an about rectangular oblong preparation free from cartilage, one end of which was tied to a small steel hook connected to a force transducer, while the other end of the preparation was attached to a fixed hook. This is followed by a period of adjustment, as described below. The preparation was mounted in an atmosphere containing 12% of oxygen and 6% of CO2.
(§3) The experimental assay system consists of 8 chambers, each with a volume of 6 ml, and is continuously perfused with solutions at a rate of 3 ml/min at 37° C. The chambers are equipped with force transducers (model AME 801, SensoNor A/S, Horton, Norway) allowing the individual registration of parallel preparations. The force transducers are connected to micrometer screws for stretching of tissue preparations to the desired tone. Recordings from the experiments are sampled and analysed using software from ADInstrumets. The substances to be tested and contractile agent are injected upstream of the preparation(s).
(§4) Materials. PPS (physiological saline solution, in mM): NaCl, 117; KCl, 4.87; MgSO4, 0.60; NaHCO3, 25.0; CaCl2, 1.60; glucose, 5.23. The solution is saturated with a mixture of 94% oxygen and 6% carbon dioxide, giving a pH of 7.40±0.05 in the experimental chamber. All substances are prepared as stock solution dissolved in the vehicles ethanol or DMSO. Leukotriene D4 (LTD4; Cayman Ltd.): 10 μl of a 100 μM ethanol stock solution. Substance to be tested: 10-100 μl of a 0.01-0.1 M DMSO stock solution. Solution for establishing the passive tension level: calcium-free PSS+2 mM EGTA. To exclude effects by the test substance vehicle, DMSO was added during the entire experiment except during the presence of test substance.
After mounting as described above the preparation is allowed to adjust with a low passive tone in the experimental chamber. The composition of the gas is changed to 94% (v/v) of oxygen. After a short adjustment period, PSS with 10 nM LTD4 is added to the experimental chamber upstream of the preparation (A). The preparation is stretched repeatedly (B) until it exerts a contraction force of around 150 mg. When the contraction has levelled off, LTD4-free solution is administered for 1 hour (C), resulting in a relaxation. A second injection of 10 nM LTD4 (D) makes the preparation return to the tensioned state. At the peak tension leukotriene-free solution is again administered (E). After a third injection of 10 nM LTD4 (F) the preparation returns to the tensioned state. […] After 1 h exposure to the test item, 10 nM LTD4 is added, resulting in a contraction (H). If the test item is a bronkorelaxant, a substantially weaker contraction is now observed (H) in comparison with the control LTD4 contraction (F). To obtain a measure of the test substance's bronchorelaxing effect the test and control forces registered in the experiment are compared. […]

[2] = test system: human bronchiols; assay: Test Procedure B: remaining contraction of LTD4-contracted human bronchus preparation under sequential test item concentrations; format: cell-based; settings: for % RC 0.1 μM: test item 0.1 μM for 1 h in 10 nM LTD4 PSS; for % RC 1 μM: test item 1 μM for 1 h in 10 nM LTD4 PSS; for % RC 1 μM / % RC 10 μM: sequential; for % RC 10 μM: test item 10 μM for 1 h in 10 nM LTD4 PSS
Method: as §1, §2, §3, §4
After mounting as described above the preparation is allowed to adjust with a low passive tone in the experimental chamber. The composition of the gas is changed to 94% (v/v) of oxygen. After a short adjustment period, PSS with 10 nM LTD4 is added to the experimental chamber upstream of the preparation (A). The preparation is stretched repeatedly (B) until it exerts a contraction force of around 150 mg. The preparation is kept at level contraction, plateau, with 10 nM LTD4 for 30 min (C). The preparation is then treated with 0.1 μM of the test item in 10 nM LTD4 PSS for 1 h. This is followed by the sequential treatment with 1 μM of the test item in 10 nM LTD4 PSS for 1 h (E) and finally 10 uM of the test item in 10 nM LTD4 PSS for 1 h (F). The experiment is concluded by adding calcium-free solution with addition of 2 mM EGTA for 20 min to establish the passive tension level base line (G).
The result, bronchorelaxing efficiency, is calculated as follows: by comparing and obtaining the ratio between the tensioned states (relative to base line) at the different concentrations, the bronchorelaxing efficiency of the test item is determined. The results are expressed as % remaining contraction (RC). […]

Compound | % RC 1 μM [1] [%] | % RC 10 μm [1] [%] | % RC 0.1 μM [2] [%] | % RC 1 μM [2] [%] | % RC 10 μM [2] [%]
Cc1nc2ncccc2cc1C(=O)NCc1ccc(C(F)(F)F)cc1 [Example 2, 2-Methyl-N-(4-(trifluoromethyl)benzyl)-1,8-naphthyridine-3-carboxamide] | 77 | 23 | – | – | –
Cc1nc2ncccc2cc1C(=O)NCc1csc(-c2ccccc2)n1 [Example 4, 2-Methyl-N-((2-phenylthiazol-4-yl)methyl)-1,8-naphthyridine-3-carboxamide] | – | – | 85 | 39 | 4
Cc1nc2ncccc2cc1C(=O)NCc1cccc(C(F)(F)F)c1 [Example 14, 2-Methyl-N-(3-(trifluoromethyl)benzyl)-1,8-naphthyridine-3-carboxamide] | 76 | 15 | – | – | –
Cc1nc2ncccc2cc1C(=O)NCc1ccc(Cl)c(C(F)(F)F)c1 [Example 17, N-(4-Chloro-3-(trifluoromethyl)benzyl)-2-methyl-1,8-naphthyridine-3-carboxamide] | 67 | 8 | – | – | –
Cc1nc2ncccc2cc1C(=O)NCc1ccc(-c2ccccc2)cc1 [Example 19, N-(Biphenyl-4-ylmethyl)-2-methyl-1,8-naphthyridine-3-carboxamide] | 41 | 17 | – | – | –
Cc1nc2ncccc2cc1C(=O)NCc1ccc(N2CCN(C)CC2)c(C(F)(F)F)c1 [Example 62, 2-methyl-N-(4-(4-methylpiperazin-1-yl)-3-(trifluoromethyl)benzyl)-1,8-naphthyridine-3-carboxamide] | – | – | 92 | 63 | 17
Cc1nc2ncccc2cc1C(=O)OCc1csc(-c2ccccc2)n1 [Example 101, (2-Phenylthiazol-4-yl)methyl 2-methyl-1,8-naphthyridine-3-carboxylate] | – | – | 72 | 63 | 27
Cc1ccc2cc(C(=O)NCc3ccc(C(C)(C)C)cc3)c(C)nc2n1 [Example 109, N-(4-tert-butylbenzyl)-2,7-dimethyl-1,8-naphthyridine-3-carboxamide] | – | – | 73 | 25 | 1

Reference: patent US8415333B2, “Bronchodilating diazaheteroaryls” (Respiratorious AB, priority 2009, dated 2013)
